Literature values, collected in patent US4761398A, “Method of inducing birds to molt” (Embrex, Inc., priority 1986, dated 1988).
Where no end group is shown, it is not given here.

target: T1, LHRH receptor (Homo sapiens, UniProt P30968); settings: 6-substituted analogs, Nestor et al.; cited from earlier work
T1 sequence (P30968 1-328): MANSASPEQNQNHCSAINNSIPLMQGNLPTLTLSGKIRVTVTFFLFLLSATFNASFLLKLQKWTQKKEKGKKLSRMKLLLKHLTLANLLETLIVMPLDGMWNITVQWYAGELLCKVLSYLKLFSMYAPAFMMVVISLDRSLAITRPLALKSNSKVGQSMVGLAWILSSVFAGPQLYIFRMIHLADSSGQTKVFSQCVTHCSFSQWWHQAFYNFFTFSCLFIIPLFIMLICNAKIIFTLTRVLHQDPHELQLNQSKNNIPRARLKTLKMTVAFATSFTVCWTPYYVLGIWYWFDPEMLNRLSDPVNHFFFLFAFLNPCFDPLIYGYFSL

| Substance | potency relative to LHRH |
| --- | --- |
| [D-Trp^6, Pro^9 -NHEt]LHRH | more potent than LHRH |
| [D-Dca^6 ]LHRH | more potent than LHRH |
| [D-Pfp^6 ]LHRH | more potent than LHRH |
| [D-Nal(1)^6 ]LHRH | more potent than LHRH |
| [D-ptf^6 ]LHRH | more potent than LHRH |
| [D-Nal(2)^6 ]LHRH | more potent than LHRH |
| [D-Cha^6 ]LHRH | more potent than LHRH |
| [D-Mtf^6 ]LHRH | more potent than LHRH |
| [D-Tmp^6 ]LHRH | more potent than LHRH |
| [D-Tmo^6 ]LHRH | more potent than LHRH |

same assay, conditions: Nestor et al.; cited from earlier work

| Substance | agonistic activity in words |
| --- | --- |
| [D-Dca^6 ]LHRH | activity dropped off |
| [D-Nal(2)^6 ], aza-Gly^10 ]LHRH | one of the most potent LHRH agonists known |

target: T1, LHRH receptor; settings: literature review; cited from earlier work

| Substance | antagonistic activity | agonistic activity of antagonist analogs |
| --- | --- | --- |
| Leu^3 -LHRH (QHLSYGLRPG; ends and bridges not checked; UniProt P01148 24-33, looked up, variant W3L) | some antagonistic activity |  |
| [desHis^2, D-Ala^6, desGly^10 ] LHRHEA | found to have antagonistic activity | showed some agonistic activity |
| [desHis^2, D-Ala^6 ] LHRH | found to have antagonistic activity |  |
| [desHis^2, desGly^10 ] LHRHEA | significant antagonistic activity |  |
| [desHis^2, Leu^3, desGly^10 ] LHRHEA | found to have antagonistic activity |  |
| [desHis^2, D-Phe^6 ]LHRH | increased antagonistic activity |  |
| [desHis^2, Leu^3, D-Ala^6, desGly^10 ] LHRHEA | found to have antagonistic activity | showed some agonistic activity |
